Experiments:
LNCaP cells = assay: LNCaP growth assay (cell count); type: cell-based, human
Method: LNCaP cells express an endogenous mutant AR that is found in prostate cancer patients. This clinically relevant cell model was used to study JC9's effect in suppressing prostate cancer cell growth. Cells were plated at a density of 6.3×10^4 cells/well in 6-well tissue culture dishes. Two days later, the complete medium was aspired and 10% charcoal/dextran-treated (hormone depleted) serum-containing medium was added. Test compounds, JC9 and hydroxyflutamide (HF) were then added to the medium at a final concentration of 5 μM with or without 1 nM of DHT. For vehicle control, the same amount of DMSO was added. For the subsequent 5 days, the medium was aspired once per day, and fresh medium containing test compounds and/or DHT was added. At designated times, a portion of cells was harvested by trypsinization, and cell count was performed using a hemacytometer.

[1] = tested on: testosterone-induced hair growth suppression; assay: Androgen-induced alopecia model, hair re-growth in shaved mice; type: in vivo, C57BL/6J mice; conditions: topical testosterone 1% in the morning, control solution in the afternoon, 20 days
Method: C57BL/6J mice were used in this animal model for hair loss and regrowth (Uno et al. (1990) J. Cutaneous Aging & Cosm. Derm., 1: 193, which is incorporated by reference in its entirety herein). Six-week-old male mice (6 to 7 animals per group) were shaved with an electric clipper, and then treated with a hair-removal cream for 1 to 2 minutes. […] One day after hair removal, a first group of animals each received 100 microliters of a 1% testosterone solution in ethanol, applied topically to the shaved area, once each morning for twenty consecutive days. A second group of animals each received 100 microliters of vehicle (ethanol) alone, applied topically to the shaved area, once each morning for twenty consecutive days. The first group of mice (testosterone-treated) were divided further into a control group and a treatment group. Also beginning one day after hair removal, each mouse in the control group received 100 microliters of a control solution (60% ethanol, 20% propylene glycol, and 20% water) and each mouse in the treatment group received 100 microliters of the test compound, JC9 (0.02% in the same 60% ethanol, 20% propylene glycol, and 20% water solution), applied topically to the shaved area, once each afternoon for twenty consecutive days. Hair re-growth in the shaved areas was observed and photographed at 12, 15, 18, 21, and 24 days after beginning of the topical treatments.

Q: Which “LNCaP cell growth with DHT alone” value (LNCaP cells; 1 nM DHT, 4-5 days) does the source give for C[C@]12CCC(=O)C[C@@H]1CC[C@@H]1[C@@H]2CC[C@]2(C)[C@@H](O)CC[C@@H]12 [DHT, dihydrotestosterone] here?
A: up-regulated LNCaP cell growth

Q: Which results are given for CC(C)(O)C(=O)Nc1ccc([N+](=O)[O-])c(C(F)(F)F)c1 [HF, hydroxyflutamide]?
A: cell growth (cell number) in the presence of DHT (LNCaP cells; 5 μM, with 1 nM DHT, 5 days): moderate activity to repress DHT-stimulated cell growth; cell growth (cell number) (LNCaP cells; 5 μM, without DHT, 5-day incubation): dramatic growth suppressing effect, however, was not detected

Q: C[C@]12CC[C@H]3[C@@H](CCC4=CC(=O)CC[C@@]43C)[C@@H]1CC[C@@H]2O [testosterone, reference compound] was tested. Which “hair re-growth in shaved areas” value [1] did it give?
A: little or no re-growth of hair

Source: US20060084704A1, “Methods and compositions for enhancing degradation of nuclear receptor transcription factors and uses thereof” (priority 2004, published 2006)
